Series [1] is described as follows: Cytotoxicity against human HepG2(2.2.15) cells assessed as decrease in cell viability after 72 hrs by MTS assay. In kind it is cell-based. As to conditions: read-out: TC50. (Tetrazolium assays rely on reduction of a dye to a coloured formazan, in cell work by metabolically active cells.)
Series [2] deals with Hepatitis B virus. Nature of the series: Decrease in hepatitis B viral surface antigen HBsAg secretion in human HepG2(2.2.15) cells at 0.75 to 3 uM after 72 hrs by EIA analysis. In kind it is functional, organism-based. Conditions: HepG2 2.2.15, 72 h; call rule not given here.
Series [3] has as its system Hepatitis B virus. Nature of the series: Decrease in hepatitis B viral surface antigen HBeAg secretion in human HepG2(2.2.15) cells at 0.75 to 3 uM after 72 hrs by EIA analysis. In kind it is functional, organism-based. As to conditions: HepG2 2.2.15, 72 h.
In series [4] the test system is Hepatitis B virus. The series can be described thus: Decrease in HBV viral DNA replication in human HepG2(2.2.15) cells at 0.75 to 3 uM after 72 hrs by real-time PCR analysis. Conditions: HepG2 2.2.15, 72 h. In kind it is functional, organism-based.
Series [5] can be described thus: Selectivity index, ratio of TC50 for human HepG2(2.2.15) cells to IC50 for decrease in hepatitis B viral surface antigen HBsAg secretion in human HepG2(2.2.15) cells.
The nature of series [6]: Selectivity index, ratio of TC50 for human HepG2(2.2.15) cells to IC50 for decrease in hepatitis B viral surface antigen HBeAg secretion in human HepG2(2.2.15) cells.
Series [7] is described as follows: Selectivity index, ratio of TC50 for human HepG2(2.2.15) cells to IC50 for decrease in HBV viral DNA replication in human HepG2(2.2.15) cells.
Series [8] can be described thus: Effect on cellular morphology of human HepG2(2.2.15) cells at 0.75 to 3 uM after 72 hrs by Giemsa staining method. In kind it is ADME, cell-based. As to conditions: hepg2 2.2.15, 72 h.
A short description of series [9]: Effect on cell cycle of human HepG2(2.2.15) cells assessed as cells at G1 phase at 0.75 to 3 uM after 72 hrs by propidium iodide staining based flow cytometry. Conditions: hepg2 2.2.15, 72 h. In kind it is ADME. In general terms: A flow cytometer gives signals particle by particle.
Series [10] is described as follows: Effect on cell cycle of human HepG2(2.2.15) cells assessed as cells at G2M phase at 0.75 to 3 uM after 72 hrs by propidium iodide staining based flow cytometry. In kind it is ADME. As to conditions: hepg2 2.2.15, 72 h.
The test system of series [11] is Hepatitis B virus. The series can be described thus: Decrease in level of HBV 3.5-kb precore/pregenomic and 2.4-/2.1-kb surface antigen RNA in human HepG2(2.2.15) cells after 48 hrs by Northern blot analysis. In kind it is functional, organism-based.

Structures are written as SMILES.

One may read the IC50 as the concentration that inhibits the measured activity by half. Higher therefore signals lower potency. Regarding `COc1ccc(C(C)=O)c(OS(=O)(=O)c2ccc([N+](=O)[O-])cc2)c1`, in [1], the CC50 at 72 h came out at 10.9 µM. In addition, the IC50 in the series with Hepatitis B virus [2] is 1.77 µM; with Hepatitis B virus [3], 4.64 µM; with Hepatitis B virus [4], 1.15 µM. Besides, the figures for the “Selectivity Index” value in series [5], in series [6] and in series [7] were 6.17, 2.35 and 9.5, respectively.

Turning to `Nc1ccn([C@@H]2CS[C@H](CO)O2)c(=O)n1` [LAMIVUDINE], the CC50 at 72 h in series [1] is 352 µM. In the series on Hepatitis B virus [4], this molecule registered an IC50 of 7.63 µM. The “Selectivity Index” value in [7] was 46.13.

As for `COc1ccc(C(C)=O)c(OS(=O)(=O)c2ccc(C)cc2)c1`, the CC50 at 72 h in [1] came out at 23.7 µM. In addition, the results for the IC50 in the series on Hepatitis B virus [2], in the series on Hepatitis B virus [3] and in the series with Hepatitis B virus [4] were 3.18 µM, 6.83 µM and 1.04 µM, respectively. In addition, the “Selectivity Index” value in [5] is given as 7.46; in series [6], 3.47; in series [7], 22.81.

Consider `COc1ccc(C(C)=O)c(OS(=O)(=O)c2ccc(N)cc2)c1`, for which the CC50 at 72 h in series [1] came to 68.8 µM. The IC50 with Hepatitis B virus [2] amounted to 21.7 µM; in the series with Hepatitis B virus [3], 72.5 µM. Further, the “Selectivity Index” value in series [5] was found to be 3.17; in series [6], 0.95.

In the case of `COc1ccc(C(C)=O)c(OS(=O)(=O)c2ccc(Br)cc2)c1`, the CC50 at 72 h in series [1] was 10.1 µM. Besides, the IC50 in the series on Hepatitis B virus [2] amounted to 2.01 µM; in the series on Hepatitis B virus [3], 1.86 µM; in the series with Hepatitis B virus [4], 0.44 µM. Also, the “Selectivity Index” value in [5] is recorded as 4.99; in [6], 5.42; in series [7], 22.91.

Take `O=c1[nH]cc(F)c(=O)[nH]1` [FLUOROURACIL]: the CC50 at 72 h in series [1] was determined as 21.7 µM.

As for `COc1ccc(S(=O)(=O)Oc2cc(OC)ccc2C(C)=O)cc1`, the CC50 at 72 h in [1] was determined as 17.2 µM. Further, the IC50 in the series with Hepatitis B virus [2] was determined as 1.55 µM; in the series with Hepatitis B virus [3], 2.24 µM; in the series with Hepatitis B virus [4] it was 0.36 µM. For the same molecule, the Activity result in series [8], in [9] and in [10] was “Non-toxic” throughout. In addition, the inhibition result in the series on Hepatitis B virus [11] is “Dose-dependent effect”. The “Selectivity Index” value in series [5] is listed as 11.09; in [6], 7.67; in series [7] it was 47.75.

For the molecule `COc1ccc(C(C)=O)c(OS(=O)(=O)c2ccc(Cl)cc2)c1`, the CC50 at 72 h in series [1] came to 13.8 µM. For the same molecule, the figures for the IC50 in the series on Hepatitis B virus [2], in the series with Hepatitis B virus [3] and with Hepatitis B virus [4] were 2.83 µM, 4.2 µM and 0.57 µM, respectively. Moreover, the figures for the “Selectivity Index” value in series [5], in series [6] and in series [7] were 4.87, 3.28 and 24.16, respectively.

In the case of `COc1ccc(C(C)=O)c(OS(=O)(=O)c2ccccc2)c1`, in [1], the CC50 at 72 h amounted to 55.4 µM. In addition, the IC50 in the series on Hepatitis B virus [2] was found to be 7.3 µM; in the series on Hepatitis B virus [3], 16.5 µM; with Hepatitis B virus [4], 1.86 µM. Further, the “Selectivity Index” value in [5] turned out to be 7.58; in series [6], 3.36; in [7], 29.77.

On to `COc1ccc(C(C)=O)c(OS(=O)(=O)c2ccc(F)cc2)c1`, for which, in [1], the CC50 at 72 h amounted to 53.7 µM. In addition, the results for the IC50 in the series with Hepatitis B virus [2], in the series with Hepatitis B virus [3] and in the series with Hepatitis B virus [4] were 5.05 µM, 11.2 µM and 2.71 µM, respectively. Further, the entries for the “Selectivity Index” value in series [5], in series [6] and in series [7] were 10.64, 4.81 and 19.82, respectively.

(Values after ChEMBL document CHEMBL3397002, “Design, synthesis, and bioevaluation of paeonol derivatives as potential anti-HBV agents” (Eur J Med Chem, 2015).)
